Measurements published in patent US9868739B2, “Salt(s) of 7-cyclopentyl-2-(5-piperazin-1-yl-pyridin-2-ylamino)-7H-pyrrolo[2,3-d]pyrimidine-6-carboxylic acid dimethylamide and processes of making thereof” (Novartis AG, priority 2010, dated 2018).
Each block holds one compound with its values, some of them ahead of it.

How the values were obtained:
[1] = Dynamic Vapor Sorption (DVS), moisture cycles 0-90-0% RH; assay type: physicochemical
[2] = Dynamic Vapor Sorption (DVS), moisture cycle 0-80-0% RH; assay type: physicochemical
[3] = physchem; conditions: water

moisture absorbed ([1]; at 90% RH, in each cycle (0 to 90 to 0% RH, two cycles)): up to 2%
physical form after exposure ([1]; upon exposure to 90% RH (XRPD, DSC, TGA)): change in physical form
Change In Mass (%) Hysteresis ([2]; Cycle 1, target RH 50.0%): 0.0074%
Change In Mass (%) Hysteresis ([2]; Cycle 1, target RH 60.0%): 0.0140%
Change In Mass (%) Desorption ([2]; Cycle 1, target RH 80.0%): 0.5200%
moisture absorbed ([2]; at 80% RH (0 to 80 to 0% RH cycle)): up to 0.5%
physical form after exposure ([2]; upon exposure to 80% RH (XRPD)): stability of the physical form
SMILES: CN(C)C(=O)c1cc2cnc(Nc3ccc(N4CCNCC4)cn3)nc2n1C1CCCC1.O=C(O)CCC(=O)O [Compound of Formula (II), 7-Cyclopentyl-N,N-dimethyl-2-(5-(piperazin-1-yl)pyridin-2-ylamino)-7H-pyrrolo[2,3-d]pyrimidine-6-carboxamide succinate]

solubility ([3]; solubility): < 0.5 mg/mL
SMILES: CN(C)C(=O)c1cc2cnc(Nc3ccc(N4CCNCC4)cn3)nc2n1C1CCCC1.O=C(O)CCC(=O)O [hydrate form, succinate salt of 7-Cyclopentyl-2-(5-piperazin-1-yl-pyridin-2-ylamino)-7H-pyrrolo[2,3-d]pyrimidine-6-carboxylic acid dimethylamide]

solubility ([3]; solubility in water): ~30 mg/mL
SMILES: CN(C)C(=O)c1cc2cnc(Nc3ccc(N4CCNCC4)cn3)nc2n1C1CCCC1.O=C(O)CCC(=O)O [non-hydrate form, succinate salt of 7-Cyclopentyl-2-(5-piperazin-1-yl-pyridin-2-ylamino)-7H-pyrrolo[2,3-d]pyrimidine-6-caboxylic acid dimethylamide]
